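How tested: cells in 96-well plates exposed to compound for 48 hours at five concentrations. The concentration for 50% growth inhibition is given as GI50. TGI denotes the concentration required for complete inhibition of growth.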
What was measured:
Test in all cases: growth of human tumour cells (NCI), 48 h
786-0 renal = test system: 786-0 renal
A498 renal = test system: A498 renal
ACHN renal = test system: ACHN renal
BT-549 breast = test system: BT-549 breast
CAKI-1 renal = test system: CAKI-1 renal
CCRF-CEM leukemia = test system: CCRF-CEM leukemia
COLO 205 colon = test system: COLO 205 colon
DU-145 prostate = test system: DU-145 prostate
EKVX NSCLC = test system: EKVX NSCLC
HCC-2998 colon = test system: HCC-2998 colon
HCT-116 colon = test system: HCT-116 colon
HCT-15 colon = test system: HCT-15 colon
HL-60(TB) leukemia = test system: HL-60(TB) leukemia
HOP-62 NSCLC = test system: HOP-62 NSCLC
HOP-92 NSCLC = test system: HOP-92 NSCLC
HS 578T breast = test system: HS 578T breast
HT29 colon = test system: HT29 colon
IGROV1 ovarian = test system: IGROV1 ovarian
KM12 colon = test system: KM12 colon
LOX IMVI melanoma = test system: LOX IMVI melanoma
M14 melanoma = test system: M14 melanoma
MALME-3M melanoma = test system: MALME-3M melanoma
MCF7 breast = test system: MCF7 breast
MDA-MB-231 breast = test system: MDA-MB-231 breast
MDA-MB-435 = test system: MDA-MB-435
MOLT-4 leukemia = test system: MOLT-4 leukemia
NCI-H226 lung = test system: NCI-H226 lung
NCI-H23 lung = test system: NCI-H23 lung
NCI-H460 lung = test system: NCI-H460 lung
NCI-H522 lung = test system: NCI-H522 lung
NCI/ADR-RES ovarian = test system: NCI/ADR-RES ovarian
OVCAR-3 ovarian = test system: OVCAR-3 ovarian
OVCAR-4 ovarian = test system: OVCAR-4 ovarian
OVCAR-5 ovarian = test system: OVCAR-5 ovarian
OVCAR-8 ovarian = test system: OVCAR-8 ovarian
PC-3 prostate = test system: PC-3 prostate
RPMI-8226 leukemia = test system: RPMI-8226 leukemia
RXF 393 renal = test system: RXF 393 renal
SF-268 CNS = test system: SF-268 CNS
SF-295 CNS = test system: SF-295 CNS
SF-539 CNS = test system: SF-539 CNS
SK-MEL-2 melanoma = test system: SK-MEL-2 melanoma
SK-MEL-28 melanoma = test system: SK-MEL-28 melanoma
SK-MEL-5 melanoma = test system: SK-MEL-5 melanoma
SK-OV-3 ovarian = test system: SK-OV-3 ovarian
SN12C renal = test system: SN12C renal
SNB-19 CNS = test system: SNB-19 CNS
SNB-75 CNS = test system: SNB-75 CNS
SR leukemia = test system: SR leukemia
SW-620 colon = test system: SW-620 colon
T-47D breast = test system: T-47D breast
TK-10 renal = test system: TK-10 renal
U251 CNS = test system: U251 CNS
UACC-257 melanoma = test system: UACC-257 melanoma
UACC-62 melanoma = test system: UACC-62 melanoma

## C[C@@H](O)[C@H]1C(=O)N2C(C(=O)O)=C(SCCN=CN)C[C@H]12
786-0 renal
  GI50: 2980 nM
  TGI: 11000 nM
A498 renal
  GI50: 853 nM
  TGI: 2440 nM
ACHN renal
  GI50: 1470 nM
  TGI: 5800 nM
BT-549 breast
  GI50: 2330 nM
  TGI: 7600 nM
CAKI-1 renal
  GI50: 2130 nM
  TGI: 5390 nM
CCRF-CEM leukemia
  GI50: 1660 nM
  TGI: 5730 nM
COLO 205 colon
  GI50: 1380 nM
  TGI: 3220 nM
DU-145 prostate
  GI50: 2560 nM
  TGI: 11700 nM
EKVX NSCLC
  GI50: 1250 nM
  TGI: 8610 nM
HCC-2998 colon
  GI50: 1810 nM
  TGI: 3890 nM
HCT-116 colon
  GI50: 1430 nM
  TGI: 6040 nM
HCT-15 colon
  GI50: 2960 nM
  TGI: 11100 nM
HL-60(TB) leukemia
  GI50: 2450 nM
  TGI: 6150 nM
HOP-62 NSCLC
  GI50: 1850 nM
  TGI: 5820 nM
HOP-92 NSCLC
  GI50: 1800 nM
  TGI: 5200 nM
HS 578T breast
  GI50: 2690 nM
  TGI: 28300 nM
HT29 colon
  GI50: 3100 nM
  TGI: 18300 nM
IGROV1 ovarian
  GI50: 1470 nM
  TGI: 9060 nM
KM12 colon
  GI50: 1480 nM
  TGI: 11400 nM
LOX IMVI melanoma
  GI50: 1440 nM
  TGI: 3970 nM
M14 melanoma
  GI50: 1860 nM
  TGI: 3520 nM
MALME-3M melanoma
  GI50: 1690 nM
  TGI: 3330 nM
MCF7 breast
  GI50: 2890 nM
  TGI: 11200 nM
MDA-MB-231 breast
  GI50: 2160 nM
  TGI: 8040 nM
MDA-MB-435
  GI50: 2380 nM
  TGI: 6010 nM
MOLT-4 leukemia
  GI50: 2320 nM
  TGI: 6260 nM
NCI-H226 lung
  GI50: 1550 nM
  TGI: 3520 nM
NCI-H23 lung
  GI50: 1810 nM
  TGI: 4780 nM
NCI-H460 lung
  GI50: 1580 nM
  TGI: 5730 nM
NCI-H522 lung
  GI50: 1580 nM
  TGI: 4120 nM
NCI/ADR-RES ovarian
  GI50: 1850 nM
  TGI: 6220 nM
OVCAR-3 ovarian
  GI50: 2950 nM
  TGI: 84100 nM
OVCAR-4 ovarian
  GI50: 2210 nM
  TGI: 6410 nM
OVCAR-5 ovarian
  GI50: 2910 nM
  TGI: 9440 nM
OVCAR-8 ovarian
  GI50: 1580 nM
  TGI: 32500 nM
PC-3 prostate
  GI50: 2230 nM
  TGI: 7270 nM
RPMI-8226 leukemia
  GI50: 1900 nM
  TGI: 6710 nM
RXF 393 renal
  GI50: 1550 nM
  TGI: 3580 nM
SF-268 CNS
  GI50: 1730 nM
  TGI: 5360 nM
SF-295 CNS
  GI50: 2670 nM
  TGI: 7500 nM
SF-539 CNS
  GI50: 2250 nM
  TGI: 6350 nM
SK-MEL-2 melanoma
  GI50: 2540 nM
  TGI: 7700 nM
SK-MEL-28 melanoma
  GI50: 1860 nM
  TGI: 3690 nM
SK-MEL-5 melanoma
  GI50: 1560 nM
  TGI: 2930 nM
SK-OV-3 ovarian
  GI50: 1380 nM
  TGI: 15800 nM
SN12C renal
  GI50: 971 nM
  TGI: 9470 nM
SNB-19 CNS
  GI50: 2190 nM
  TGI: 8490 nM
SNB-75 CNS
  GI50: 2120 nM
  TGI: 5100 nM
SR leukemia
  GI50: 1560 nM
  TGI: 4940 nM
SW-620 colon
  GI50: 744 nM
  TGI: 10400 nM
T-47D breast
  GI50: 2650 nM
  TGI: 9340 nM
TK-10 renal
  GI50: 4330 nM
  TGI: > 100000 nM
U251 CNS
  GI50: 2340 nM
  TGI: 10900 nM
UACC-257 melanoma
  GI50: 1800 nM
  TGI: 3780 nM
UACC-62 melanoma
  GI50: 1720 nM
  TGI: 3330 nM

Reference: PubChem BioAssay (NCI)
